# Measured values reported in patent publication US7652071B2, “Penetration of active substances into cells and organs” (Alpha-Biocare GmbH, priority 2003, dated 2010).
# Tested on: Angiostrongylus cantonensis
# Assay: Detection of worm stages in the brain of Wistar rats experimentally infected with Angiostrongylus cantonensis after oral treatment
# Type: in vivo
# Procedure: Each rat was infected with precisely 60 L3 larvae. From day 5 post-infection onwards, mebendazole was administered once daily on three successive days at the dosage rates and in the formulations stated. The worms were detected on day 21 post-infection.
smiles,measurement,setting,value
"COC(=O)Nc1nc2ccc(C(=O)c3ccccc3)cc2[nH]1 [Mebendazole, mebendazole]",Worm detection in the brain,"aqueous suspension, mebendazole 10 mg/kg body weight oral, once daily on three successive days from day 5 post-infection, worms detected day 21, % of infection control (55 worms = 100%)",98.2%
same,Worm reduction in the brain,"mebendazole with the aid of the carrier system, at a more than 30-fold reduced mebendazole dose",significant worm reduction in the brain
